Data taken from patent US10000516B2 (priority 2015, dated 2018).

What follows are molecules tested against T1, Human Factor D (Homo sapiens, UniProt P00746) (assay: Human Factor D assay (Z-L-Lys-SBzl/DTNB, absorbance at 405 nm)). Settings: not given.
T1 construct: purified from human serum; purchased Complement Technology, Inc; host or cells: human serum (natural protein, not recombinant)
T1 sequence (P00746 26-253): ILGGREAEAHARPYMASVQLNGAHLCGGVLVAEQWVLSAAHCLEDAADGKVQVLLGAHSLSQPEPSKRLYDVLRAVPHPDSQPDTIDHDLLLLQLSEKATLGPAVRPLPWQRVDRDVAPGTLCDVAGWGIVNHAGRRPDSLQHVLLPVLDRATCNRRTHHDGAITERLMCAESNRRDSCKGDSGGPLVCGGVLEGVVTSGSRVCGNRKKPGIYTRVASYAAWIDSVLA
Format: biochemical
Protocol: Example 44. Human Factor D Assay
Human Factor D (purified from human serum, Complement Technology, Inc.) at 80 nM final concentration was incubated with test compound at various concentrations for 5 minutes at room temperature in 50 mM Tris, 1M NaCl, pH 7.5. A synthetic substrate Z-L-Lys-SBzl and DTNB (Ellman's reagent) are added to final concentrations of 100 µM each. Absorbance at 405 nm (A405) was recorded at 30 second intervals for 30 minutes using a microplate spectrophotometer. IC50 values are calculated by nonlinear regression of complement Factor D reaction rates as a function of test compound concentration.
For `O=C(NCc1cccc(Cl)c1F)[C@@H]1C[C@@H](F)CN1C(=O)Cn1cc(C(=O)C(F)(F)F)c2ccc(P(=O)(O)O)cc21` [Compound 32, 1-(2-((2S,4R)-2-(3-chloro-2-fluorobenzylcarbamoyl)-4-fluoropyrrolidin-1-yl)-2-oxoethyl)-3-(2,2,2-trifluoroacetyl)-1H-indol-6-ylphosphonic acid], the IC50 was less than 1 µM.

Same assay, conditions: Table 1; Human Factor D 80 nM, purified from human serum; substrate Z-L-Lys-SBzl; read-out: IC50
Work on `CCP(=O)(O)c1ccc2c(C(C)=O)cn(CC(=O)N3C[C@H](F)C[C@H]3C(=O)NCc3cccc(Cl)c3F)c2c1` [Compound 27, 3-acetyl-1-(2-((2S,4R)-2-(3-chloro-2-fluorobenzylcarbamoyl)-4-fluoropyrrolidin-1-yl)-2-oxoethyl)-1H-indol-6-yl(ethyl)phosphinic acid] yielded an IC50 of less than 1 µM.
`CC(=O)c1cn(CC(=O)N2C[C@H](F)C[C@H]2C(=O)NCc2cccc(Cl)c2F)c2cc(P(=O)(O)OCOC(=O)C(C)(C)C)ccc12` [Compound 28, ((3-acetyl-1-(2-((2S,4R)-2-(3-chloro-2-fluorobenzylcarbamoyl)-4-fluoropyrrolidin-1-yl)-2-oxoethyl)-1H-indol-6-yl)(hydroxy)phosphoryloxy) methyl pivalate] gave an IC50 of less than 1 µM.
Work on `CC(=O)c1cn(CC(=O)N2C[C@H](F)C[C@H]2C(=O)NCc2cccc(Cl)c2F)c2cc(P(=O)(O)OCC(F)(F)F)ccc12` [Compound 29, 2,2,2-trifluoroethyl hydrogen 3-acetyl-1-(2-((2S,4R)-2-(3-chloro-2-fluorobenzylcarbamoyl)-4-fluoropyrrolidin-1-yl)-2-oxoethyl)-1H-indol-6-ylphosphonate] yielded an IC50 of less than 1 µM.
`CCOP(=O)(OCC)c1cc2c(cc1F)c(C(C)=O)cn2CC(=O)N1C[C@H](F)C[C@H]1C(=O)NCc1cccc(Cl)c1F` [Compound 30, diethyl 3-acetyl-1-(2-((2S,4R)-2-(3-chloro-2-fluorobenzylcarbamoyl)-4-fluoropyrrolidin-1-yl)-2-oxoethyl)-5-fluoro-1H-indol-6-ylphosphonate] gave an IC50 of less than 1 µM.
`CC(=O)c1cn(CC(=O)N2C[C@H](F)C[C@H]2C(=O)NCc2cccc(Cl)c2F)c2cc(P(=O)(O)O)c(F)cc12` [Compound 31, 3-acetyl-1-(2-((2S,4R)-2-(3-chloro-2-fluorobenzylcarbamoyl)-4-fluoropyrrolidin-1-yl)-2-oxoethyl)-5-fluoro-1H-indol-6-ylphosphonic acid] was tested, and the IC50 was less than 1 µM.

Same assay, conditions: Table 3; Human Factor D 80 nM, purified from human serum; substrate Z-L-Lys-SBzl; read-out: IC50 (Stars)
`CCOP(=O)(OCC)c1ccc2c(c1)c(C(C)=O)cn2CC(=O)N1C[C@H](F)C[C@H]1C(=O)NCCc1ccccc1` [Compound 78, diethyl (3-acetyl-1-(2-((2S,4R)-4-fluoro-2-(phenethylcarbamoyl)pyrrolidin-1-yl)-2-oxoethyl)-1H-indol-5-yl)phosphonate] was tested, and the IC50 was greater than 10 µM.
In the case of `CC(=O)c1cn(CC(=O)N2C[C@H](F)C[C@H]2C(=O)NCCc2ccccc2)c2ccc(P(=O)(O)O)cc12` [Compound 79, (3-acetyl-1-(2-((2S,4R)-4-fluoro-2-(phenethylcarbamoyl)pyrrolidin-1-yl)-2-oxoethyl)-1H-indol-5-yl)phosphonic acid], the IC50 is reported as greater than 10 µM.
Work on `CCOP(=O)(OCC)c1ccc2c(c1)c(C(C)=O)cn2CC(=O)N1C[C@H](F)C[C@H]1C(=O)NCCCc1ccccc1` [Compound 82, diethyl (3-acetyl-1-(2-((2S,4R)-4-fluoro-2-((3-phenylpropyl)carbamoyl)pyrrolidin-1-yl)-2-oxoethyl)-1H-indol-5-yl)phosphonate] yielded an IC50 greater than 10 µM.
Work on `CC(=O)c1cn(CC(=O)N2C[C@H](F)C[C@H]2C(=O)NCCCc2ccccc2)c2ccc(P(=O)(O)O)cc12` [Compound 83, (3-acetyl-1-(2-((2S,4R)-4-fluoro-2-((3-phenylpropyl)carbamoyl)pyrrolidin-1-yl)-2-oxoethyl)-1H-indol-5-yl)phosphonic acid] yielded an IC50 greater than 10 µM.
In the case of `CCOP(=O)(OCC)c1ccc2c(c1)c(C(C)=O)cn2CC(=O)N1C[C@H](F)C[C@H]1C(=O)NCCCCc1ccccc1` [Compound 86, diethyl (3-acetyl-1-(2-((2S,4R)-4-fluoro-2-((4-phenylbutyl)carbamoyl)pyrrolidin-1-yl)-2-oxoethyl)-1H-indol-5-yl)phosphonate], the IC50 is reported as greater than 10 µM.
With `CC(=O)c1cn(CC(=O)N2C[C@H](F)C[C@H]2C(=O)NCCCCc2ccccc2)c2ccc(P(=O)(O)O)cc12` [Compound 87, (3-acetyl-1-(2-((2S,4R)-4-fluoro-2-((4-phenylbutyl)carbamoyl)pyrrolidin-1-yl)-2-oxoethyl)-1H-indol-5-yl)phosphonic acid] the IC50 was greater than 10 µM.
For `CCOP(=O)(OCC)c1ccc2c(c1)c(C(C)=O)cn2CC(=O)N1C[C@H](F)C[C@H]1CCNS(=O)(=O)c1ccccc1` [Compound 95, diethyl (3-acetyl-1-(2-((2R,4R)-4-fluoro-2-(2-(phenylsulfonamido)ethyl)pyrrolidin-1-yl)-2-oxoethyl)-1H-indol-5-yl)phosphonate], the IC50 was greater than 10 µM.
Work on `CC(=O)c1cn(CC(=O)N2C[C@H](F)C[C@H]2CCNS(=O)(=O)c2ccccc2)c2ccc(P(=O)(O)O)cc12` [Compound 96, (3-acetyl-1-(2-((2R,4R)-4-fIuoro-2-(2-(phenylsulfonamido)ethyl)pyrrolidin-1-yl)-2-oxoethyl)-1H-indol-5-yl)phosphonic acid] yielded an IC50 greater than 10 µM.
In the case of `CCOP(=O)(OCC)c1ccc2c(c1)c(C(C)=O)cn2CC(=O)N1CC[C@H]1C(=O)Nc1cccc(C)n1` [Compound 100, (S)-diethyl (3-acetyl-1-(2-(2-((6-methylpyridin-2-yl)carbamoyl)azetidin-1-yl)-2-oxoethyl)-1H-indol-5-yl)phosphonate], the IC50 is reported as greater than 10 µM.
In the case of `CC(=O)c1cn(CC(=O)N2CC[C@H]2C(=O)Nc2cccc(C)n2)c2ccc(P(=O)(O)O)cc12` [Compound 101, (S)-(3-acetyl-1-(2-(2-((6-methylpyridin-2-yl)carbamoyl)azetidin-1-yl)-2-oxoethyl)-1H-indol-5-yl)phosphonic acid], the IC50 is reported as greater than 10 µM.
`CCOP(=O)(OCC)c1ccc2c(c1)c(C(N)=O)cn2CC(=O)N1[C@@H]2CC[C@@H](C2)[C@H]1C(=O)Nc1cccc(C)n1` [Compound 102, diethyl (3-carbamoyl-1-(2-((1R,3S,4S)-3-((6-methylpyridin-2-yl)carbamoyl)-2-azabicyclo[2.2.1]heptan-2-yl)-2-oxoethyl)-1H-indol-5-yl)phosphonate] showed an IC50 greater than 10 µM.
`Cc1cccc(NC(=O)[C@@H]2[C@H]3CC[C@H](C3)N2C(=O)Cn2cc(C(N)=O)c3cc(P(=O)(O)O)ccc32)n1` [Compound 103, (3-carbamoyl-1-(2-((1R,3S,4S)-3-((6-methylpyridin-2-yl)carbamoyl)-2-azabicyclo[2.2.1]heptan-2-yl)-2-oxoethyl)-1H-indol-5-yl)phosphonic acid] gave an IC50 greater than 10 µM.
For `CCOP(=O)(OCC)c1nc2c(s1)c(C(N)=O)nn2CC(=O)N1[C@@H]2C[C@@H]2C[C@H]1C(=O)Nc1cccc(-c2cc(C(C)=O)ccc2Cl)c1F` [Compound 104, diethyl (1-(2-((1R,3S,5R)-3-((5′-acetyl-2′-chloro-2-fIuoro-[1,1′-biphenyl]-3-yl)carbamoyl)-2-azabicyclo[3.1.0]hexan-2-yl)-2-oxoethyl)-3-carbamoyl-1H-pyrazolo[3,4-d]thiazol-5-yl)phosphonate], the IC50 was less than 1 µM.
For `CC(=O)c1nn(CC(=O)N2C[C@H](F)C[C@H]2C(=O)Nc2cccc(Br)n2)c2cc(P(=O)(O)O)ccc12` [Compound 105, (3-acetyl-1-(2-((2S,4R)-2-((6-bromopyridin-2-yl)carbamoyl)-4-fluoropyrrolidin-1-yl)-2-oxoethyl)-1H-indazol-6-yl)phosphonic acid], the IC50 was less than 1 µM.
With `CC(=O)c1nn(CC(=O)N2[C@H](C(=O)Nc3cccc(Br)n3)C[C@@]3(C)C[C@@H]23)c2cc(P(=O)(O)O)ccc12` [Compound 106, (3-acetyl-1-(2-((1R,3S,5R)-3-((6-bromopyridin-2-yl)carbamoyl)-5-methyl-2-azabicyclo[3.1.0]hexan-2-yl)-2-oxoethyl)-1H-indazol-6-yl) phosphonic acid] the IC50 was less than 1 µM.
`CCOP(=O)(OCC)c1nc2c(s1)c(C(N)=O)nn2CC(=O)N1C[C@H](F)C[C@H]1C(=O)Nc1cccc(C)n1` [Compound 146] showed an IC50 greater than 10 µM.
For `CCOP(=O)(OCC)c1nc2c(s1)c(C(N)=O)nn2CC(=O)N1C[C@H](F)C[C@H]1C(=S)NC1CCC(c2cc3sccc3s2)C1` (some centres unmarked) [Compound 148], the IC50 was greater than 10 µM.
